Tests used:
Type in all cases: in vivo
[1] = system: duck salad (Heteranthera limosa); assay: Test D flooded paddy test, visual plant response rating; conditions: 250 g ai/ha, scale 0 to 100 (0 no effect, 100 complete control), 13 to 15 d
Method in brief: (§1)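 Plants grown to the 2-leaf stage; pots flooded to 3 cm above soil and compound applied directly into paddy water, depth held throughout. Kept in greenhouse 13 to 15 d, then rated visually against untreated controls on a 0–100 scale (0 no effect, 100 complete control).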

[2] = system: barnyardgrass (Echinochloa crus-galli); assay: as above; conditions: 250 g ai/ha, scale 0 to 100 (0 no effect, 100 complete control), 13 to 15 d
Method in brief: as §1

[3] = system: rice (Oryza sativa); assay: as above; conditions: 250 g ai/ha, scale 0 to 100 (0 no effect, 100 complete control), 13 to 15 d
Method in brief: as §1

[4] = system: sedge umbrella (small-flower umbrella sedge, Cyperus difformis); assay: as above; conditions: 250 g ai/ha, scale 0 to 100 (0 no effect, 100 complete control), 13 to 15 d
Method in brief: as §1

[5] = system: Italian ryegrass (Lolium mutiflorum); assay: Test C preemergence, visual plant response rating
Method in brief: (§2)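 Seeds sown in a loam–sand blend got a directed preemergence soil spray; postemergence plants (2–10 cm, one- to two-leaf stage) were sprayed with compound in a non-phytotoxic solvent plus surfactant. Injury was scored visually against untreated controls after about 10 d in a greenhouse on a 0–100 scale (100 = complete control).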

[6] = system: barnyardgrass (Echinochloa crus-galli); assay: Test C preemergence, visual plant response rating
Method in brief: as §2

[7] = system: pigweed (Amaranthus retroflexus); assay: Test C preemergence, visual plant response rating
Method in brief: as §2

[8] = system: ragweed (common ragweed, Ambrosia artemisiifolia); assay: Test C preemergence, visual plant response rating
Method in brief: as §2

[9] = system: kochia (Bassia scoparia); assay: Test C preemergence, visual plant response rating
Method in brief: as §2

[10] = system: foxtail, giant (giant foxtail, Setaria faberi); assay: Test C preemergence, visual plant response rating
Method in brief: as §2

[11] = system: Italian ryegrass (Lolium mutiflorum); assay: Test C postemergence, visual plant response rating
Method in brief: as §2

[12] = system: blackgrass (Alopecurus myosuroides); assay: Test C postemergence, visual plant response rating
Method in brief: as §2

[13] = system: barnyardgrass (Echinochloa crus-galli); assay: Test C postemergence, visual plant response rating
Method in brief: as §2

[14] = system: pigweed (Amaranthus retroflexus); assay: Test C postemergence, visual plant response rating
Method in brief: as §2

[15] = system: wheat (Triticum aestivum); assay: Test C postemergence, visual plant response rating
Method in brief: as §2

[16] = system: ragweed (common ragweed, Ambrosia artemisiifolia); assay: Test C postemergence, visual plant response rating
Method in brief: as §2

[17] = system: kochia (Bassia scoparia); assay: Test C postemergence, visual plant response rating
Method in brief: as §2

[18] = system: foxtail, giant (giant foxtail, Setaria faberi); assay: Test C postemergence, visual plant response rating
Method in brief: as §2

[19] = system: galium (catchweed bedstraw, Galium aparine); assay: Test C postemergence, visual plant response rating
Method in brief: as §2

[20] = system: corn (Zea mays); assay: Test C postemergence, visual plant response rating
Method in brief: as §2

[21] = Test C, 31 g ai/ha, 0 is no effect, 100 is complete control
[22] = Test C, postemergence, 125 g ai/ha
[23] = Test C, 125 g ai/ha, 0 is no effect, 100 is complete control

SMILES	Plant response rating, Ducksalad (Flood) [1]	Plant response rating, Barnyardgrass (Flood) [2]	Plant response rating, Rice (Flood) [3]	Plant response rating, Sedge, Umbrella (Flood) [4]	Ryegrass, Italian plant response rating (0 to 100 scale) [5, 21]	Barnyardgrass plant response rating (0 to 100 scale) [6, 21]	Pigweed plant response rating (0 to 100 scale) [7, 21]	Ragweed plant response rating (0 to 100 scale) [8, 21]	Kochia plant response rating (0 to 100 scale) [9, 21]	Foxtail, Giant plant response rating (0 to 100 scale) [10, 21]	Ryegrass, Italian plant response rating (0 to 100 scale) ([11]; Postemergence, 31 g ai/ha)	Ryegrass, Italian plant response rating (0 to 100 scale) [11, 22]	Blackgrass plant response rating (0 to 100 scale) ([12]; Postemergence, 31 g ai/ha)	Blackgrass plant response rating (0 to 100 scale) [12, 22]	Barnyardgrass plant response rating (0 to 100 scale) ([13]; Postemergence, 31 g ai/ha)	Barnyardgrass plant response rating (0 to 100 scale) [13, 22]	Pigweed plant response rating (0 to 100 scale) ([14]; Postemergence, 31 g ai/ha)	Pigweed plant response rating (0 to 100 scale) [14, 22]	Wheat plant response rating (0 to 100 scale) ([15]; Postemergence, 31 g ai/ha)	Wheat plant response rating (0 to 100 scale) [15, 22]	further results
C#CCO/N=C(\c1ccc(Cl)c(Cl)c1)c1c(O)c(C)nn(C)c1=O [Compound 166]	0	0	0	0	10	0	0	0	0	0	0	80	0	20	20	30	30	50	0	60	Ryegrass, Italian plant response rating (0 to 100 scale) ([5]; 125 g ai/ha): 60; Barnyardgrass plant response rating (0 to 100 scale) ([6]; 125 g ai/ha): 50; Pigweed plant response rating (0 to 100 scale) ([7]; 125 g ai/ha): 50; Ragweed plant response rating (0 to 100 scale) ([8]; 125 g ai/ha): 10; Kochia plant response rating (0 to 100 scale) ([9]; 125 g ai/ha): 80; Foxtail, Giant plant response rating (0 to 100 scale) ([10]; 125 g ai/ha): 60; Ragweed plant response rating (0 to 100 scale) ([16]; Postemergence, 31 g ai/ha): 20; Ragweed plant response rating (0 to 100 scale) [16, 22]: 30; Kochia plant response rating (0 to 100 scale) ([17]; Postemergence, 31 g ai/ha): 30; Kochia plant response rating (0 to 100 scale) [17, 22]: 40; Foxtail, Giant plant response rating (0 to 100 scale) ([18]; Postemergence, 31 g ai/ha): 10; Foxtail, Giant plant response rating (0 to 100 scale) [18, 22]: 30; Galium plant response rating (0 to 100 scale) ([19]; Postemergence, 31 g ai/ha): 50; Galium plant response rating (0 to 100 scale) [19, 22]: 80; Corn plant response rating (0 to 100 scale) ([20]; Postemergence, 31 g ai/ha): 0; Corn plant response rating (0 to 100 scale) [20, 22]: 20
CON=C(c1cc(Cl)cc(OC)c1)c1c(O)c(C)nn(C)c1=O [Compound 175]	0	0	0	0	30	50	0	40	40	30	50	70	20	30	50	70	50	70	0	0	Ryegrass, Italian plant response rating (0 to 100 scale) ([5]; 125 g ai/ha): 50; Barnyardgrass plant response rating (0 to 100 scale) ([6]; 125 g ai/ha): 70; Pigweed plant response rating (0 to 100 scale) ([7]; 125 g ai/ha): 30; Ragweed plant response rating (0 to 100 scale) ([8]; 125 g ai/ha): 100; Kochia plant response rating (0 to 100 scale) ([9]; 125 g ai/ha): 80; Foxtail, Giant plant response rating (0 to 100 scale) ([10]; 125 g ai/ha): 70; Ragweed plant response rating (0 to 100 scale) ([16]; Postemergence, 31 g ai/ha): 80; Ragweed plant response rating (0 to 100 scale) [16, 22]: 90; Kochia plant response rating (0 to 100 scale) ([17]; Postemergence, 31 g ai/ha): 80; Kochia plant response rating (0 to 100 scale) [17, 22]: 100; Foxtail, Giant plant response rating (0 to 100 scale) ([18]; Postemergence, 31 g ai/ha): 50; Foxtail, Giant plant response rating (0 to 100 scale) [18, 22]: 80; Galium plant response rating (0 to 100 scale) ([19]; Postemergence, 31 g ai/ha): 90; Galium plant response rating (0 to 100 scale) [19, 22]: 100; Corn plant response rating (0 to 100 scale) ([20]; Postemergence, 31 g ai/ha): 10; Corn plant response rating (0 to 100 scale) [20, 22]: 20
CO/N=C(/c1ccc(F)c(Cl)c1)c1c(O)c(C)nn(C)c1=O [Compound 218]	0	0	0	0	0	0	0	0	0	0	40	60	0	0	0	10	20	60	0	0	Ryegrass, Italian plant response rating (0 to 100 scale) [5, 23]: 10; Barnyardgrass plant response rating (0 to 100 scale) [6, 23]: 0; Pigweed plant response rating (0 to 100 scale) [7, 23]: 0; Ragweed plant response rating (0 to 100 scale) [8, 23]: 0; Kochia plant response rating (0 to 100 scale) [9, 23]: 0; Foxtail, Giant plant response rating (0 to 100 scale) [10, 23]: 0; Ragweed plant response rating (0 to 100 scale) ([16]; Postemergence, 31 g ai/ha): 0; Ragweed plant response rating (0 to 100 scale) [16, 22]: 10; Kochia plant response rating (0 to 100 scale) ([17]; Postemergence, 31 g ai/ha): 10; Kochia plant response rating (0 to 100 scale) [17, 22]: 30; Foxtail, Giant plant response rating (0 to 100 scale) ([18]; Postemergence, 31 g ai/ha): 0; Foxtail, Giant plant response rating (0 to 100 scale) [18, 22]: 0; Galium plant response rating (0 to 100 scale) ([19]; Postemergence, 31 g ai/ha): 50; Galium plant response rating (0 to 100 scale) [19, 22]: 80; Corn plant response rating (0 to 100 scale) ([20]; Postemergence, 31 g ai/ha): 0; Corn plant response rating (0 to 100 scale) [20, 22]: 0
CO/N=C(\c1cc(F)cc(C)c1F)c1c(O)c(C)nn(C)c1=O [Compound 193]	0	0	0	0	30	30	50	30	10	30	40	70	20	50	20	50	40	80	0	0	Ryegrass, Italian plant response rating (0 to 100 scale) [5, 23]: 80; Barnyardgrass plant response rating (0 to 100 scale) [6, 23]: 60; Pigweed plant response rating (0 to 100 scale) [7, 23]: 90; Ragweed plant response rating (0 to 100 scale) [8, 23]: 60; Kochia plant response rating (0 to 100 scale) [9, 23]: 70; Foxtail, Giant plant response rating (0 to 100 scale) [10, 23]: 80; Ragweed plant response rating (0 to 100 scale) ([16]; Postemergence, 31 g ai/ha): 70; Ragweed plant response rating (0 to 100 scale) [16, 22]: 70; Kochia plant response rating (0 to 100 scale) ([17]; Postemergence, 31 g ai/ha): 60; Kochia plant response rating (0 to 100 scale) [17, 22]: 70; Foxtail, Giant plant response rating (0 to 100 scale) ([18]; Postemergence, 31 g ai/ha): 40; Foxtail, Giant plant response rating (0 to 100 scale) [18, 22]: 50; Galium plant response rating (0 to 100 scale) ([19]; Postemergence, 31 g ai/ha): 80; Galium plant response rating (0 to 100 scale) [19, 22]: 90; Corn plant response rating (0 to 100 scale) ([20]; Postemergence, 31 g ai/ha): 0; Corn plant response rating (0 to 100 scale) [20, 22]: 10

From US20210045385A1, “PYRIDAZINONE-SUBSTITUTED KETOXIMES AS HERBICIDES” (FMC Corporation, priority 2018, published 2021)
